A short description of data set [1]: in vivo. The data set is classed as in vivo. The settings on record: rat, in vivo, po; read-out: LD 50 (Litchfield and Wilcoxon).
The next data set relates to Rat. Description: in vivo. The format is in vivo.
The nature of data set [2]: in vivo. The conditions noted are these: rat, in vivo, po, 200 mg/kg/day; read-out: % of dead animals. The text has this:
(§1) Five days subacute toxicity in rats per os
(§2) Animals: 5 female rats for each group, average body weight: 150g.

Data set [3] has as its system rats. Description: in vivo. The conditions noted are these: 5 days, rats, per os.
Description: as §1, §2

In data set [4] the test system is rats. The data set is classed as in vivo, rat. The settings on record: for Average number of lesions per animal / Gastrolesive effect, relative potency to naproxen / Gastrolesive effect, relative potency to piroxicam: single oral administration, male rats. As for the experimental part: The test was modified by increasing the fast period to 70 hours and giving the total dose of substance in one single oral administration.
Animals: 10 male rats for each group, average body weight: 150g.

The test system of another data set is pyresis. Description: Antipyretic activity according to Burn et al. The data set is classed as in vivo, rat. The settings on record: for Reduction of the pyresis at hour 4: female rats. The text has this:
Animals: 6 female rats for each group, average body weight 200 g.

The test system of a further data set is phenylquinone writhes. Description: Analgesic activity according to Hendershot et al., phenylquinone writhes, modified. The format is in vivo, mouse. The protocol: Analgesic activity according to HENDERSHOT et al., Jour. Pharm.
The test was modified by numbering the writhes only along the time interval from 5 to 15 minutes since the injection of phenylquinone. The injection was made 2 hours after the oral administration of the compound to be tested.
Animals: 8 female mice for each group, average body weight: 25g

In the next data set the test system is carrageenin paw edema. Description: Antiinflammatory activity according to Winter et al., carrageenin paw edema, modified. The format is in vivo, rat. The protocol:
Antiinflammatory activity according to WINTER et al., Proc. Soc. Exp. Biol. Med.; 111, 544; 1962.
The test was modified in that the injection of carrageenin and the administration of the compound by gastric gavage were carried out simultaneously and the paw edema was measured at the plethysmograph after 4 hours.
Animals: 6 female rats for each group, average body weight: 150g
Background: The carrageenan paw model is a standard test of acute inflammation.

The subject of a further data set is Mouse. The conditions noted are these: per os.
A short description of data set [5]: in vivo. The settings on record: mouse, po.
Setting [6] is: 100 mg/kg (maximum tested dose).
[7] abbreviates: 50 mg/g (so in the source) per os.
[8] abbreviates: 100 mg/g (so in the source) per os.
The mark [9] stands for this setting: Mus musculus, 50 mg/kg oral, 2 h before phenylquinone, 5-15 min, female mice.
Where [10] appears, read: Mus musculus, 100 mg/kg oral, 2 h before phenylquinone, 5-15 min, female mice.
[11] abbreviates: Rattus norvegicus, po, 4 h, 50 mg/kg per os, female rats, read-out: % inhibition of the edema after 4 hours.
Where [12] appears, read: Rattus norvegicus, po, 4 h, 100 mg/kg per os, female rats, read-out: % inhibition of the edema after 4 hours.

Read-outs that look alike come from different tables or passages of the source.

For the compound `CCN(CC)CCNC(=O)c1nn(-c2ccccc2)c2c1N(C)S(=O)(=O)c1ccccc1-2` [Compound I-1, 2-methyl-5-phenyl-1,2-benzothiazino[3,4-d]pyrazole-3-yl-carboxylic acid, 2-(N,N-diethylamino)ethylamide,S,S-dioxide], in “in vivo [1]”, the LD50 turned out to be 2700 mg/kg. Besides, the “LD 50, relative ratio to piroxicam” value with Rat (in vivo) is listed as 10.0. Moreover, the mortality at 120 h in “in vivo [2]” came out at 0%. Moreover, in the data set on rats [3], the “Subacute toxicity, relative ratio to naproxen” value was found to be 4 and the “Subacute toxicity, relative ratio to piroxicam” value is 10. The “Average number of lesions per animal” value in the data set on rats [4] (setting [6]) turned out to be 0. Also, in the data set with rats [4], the Gastrolesive effect, relative potency to naproxen was over 20 and the “Gastrolesive effect, relative potency to piroxicam” value amounted to 100. Further, in the data set on pyresis (setting [7]), the “Antipyretic relative potency to naproxen” value was found to be 0.8, the “Antipyretic relative potency to piroxicam” value was 1.0 and the “Reduction of the pyresis at hour 4” value was 0.86 °C. For the same compound, in the data set on pyresis (setting [8]), the “Antipyretic relative potency to naproxen” value was 1.3, the “Antipyretic relative potency to piroxicam” value is listed as 1.6 and the “Reduction of the pyresis at hour 4” value was 1.44 °C. In the data set on phenylquinone writhes (50 mg/kg oral), the “Analgesic relative potency to naproxen” value came out at 1.3 and the “Analgesic relative potency to piroxicam” value is listed as 0.9. For the same compound, in the data set with phenylquinone writhes (100 mg/kg oral), the “Analgesic relative potency to naproxen” value was 2.2 and the “Analgesic relative potency to piroxicam” value came out at 1.6. Besides, the inhibition in vivo at 50 mg/kg in the data set on phenylquinone writhes (setting [9]) was found to be 43%. This compound also had an inhibition in vivo at 100 mg/kg in the data set with phenylquinone writhes (setting [10]) of 72%. Besides, in the data set with carrageenin paw edema (50 mg/kg per os), the “Antiinflammatory relative potency to naproxen” value was determined as 0.5 and the “Antiinflammatory relative potency to piroxicam” value was 0.2. Besides, in the data set on carrageenin paw edema (100 mg/kg per os), the “Antiinflammatory relative potency to naproxen” value is reported as 0.8 and the “Antiinflammatory relative potency to piroxicam” value amounted to 0.4. In the data set with carrageenin paw edema (setting [11]), the inhibition in vivo at 50 mg/kg was determined as 10%. The inhibition in vivo at 100 mg/kg in the data set with carrageenin paw edema (setting [12]) was determined as 16%. For the same compound, in the data set with Mouse, the “LD 50, relative ratio to naproxen” value was found to be 2.3 and the “LD 50, relative ratio to piroxicam” value came to 7.9. Also, in “in vivo [5]”, the LD50 was 2850 mg/kg.

As for `CN(C)CCCNC(=O)c1nn(-c2ccccc2)c2c1N(C)S(=O)(=O)c1ccccc1-2` [Compound I-2], in “in vivo [1]”, the LD50 turned out to be 2400 mg/kg. Also, in the data set with Rat (per os), the “LD 50, relative ratio to naproxen” value was found to be 4.4 and the “LD 50, relative ratio to piroxicam” value stood at 8.9. The mortality at 120 h in the data set “in vivo [2]” came out at 0%. Moreover, in the data set with rats [3], the “Subacute toxicity, relative ratio to naproxen” value is reported as 4 and the “Subacute toxicity, relative ratio to piroxicam” value is reported as 10. Also, in the data set with rats [4] (setting [6]), the “Average number of lesions per animal” value is reported as 0. Moreover, in the data set with rats [4], the Gastrolesive effect, relative potency to naproxen is over 20 and the “Gastrolesive effect, relative potency to piroxicam” value turned out to be 100. In addition, in the data set on pyresis (setting [7]), the “Antipyretic relative potency to naproxen” value came out at 0.5, the “Antipyretic relative potency to piroxicam” value is recorded as 0.7 and the “Reduction of the pyresis at hour 4” value was determined as 0.58 °C. In the data set on pyresis (setting [8]), the “Antipyretic relative potency to naproxen” value turned out to be 0.8, the “Antipyretic relative potency to piroxicam” value is on record as 1.0 and the “Reduction of the pyresis at hour 4” value was 0.89 °C. Besides, in the data set with phenylquinone writhes (50 mg/kg oral), the “Analgesic relative potency to naproxen” value was determined as 2.1 and the “Analgesic relative potency to piroxicam” value was 1.5. Moreover, in the data set with phenylquinone writhes (100 mg/kg oral), the “Analgesic relative potency to naproxen” value came to 2.8 and the “Analgesic relative potency to piroxicam” value amounted to 2.0. In the data set with phenylquinone writhes (setting [9]), this compound displayed an inhibition in vivo at 50 mg/kg of 68%. In the data set with phenylquinone writhes (setting [10]), this compound showed an inhibition in vivo at 100 mg/kg of 92%. In addition, in the data set on carrageenin paw edema (50 mg/kg per os), the “Antiinflammatory relative potency to naproxen” value stood at 0.6 and the “Antiinflammatory relative potency to piroxicam” value is reported as 0.3. In the data set on carrageenin paw edema (100 mg/kg per os), the “Antiinflammatory relative potency to naproxen” value is given as 0.8 and the “Antiinflammatory relative potency to piroxicam” value is reported as 0.4. Further, in the data set on carrageenin paw edema (setting [11]), the inhibition in vivo at 50 mg/kg is 12%. Also, in the data set on carrageenin paw edema (setting [12]), the inhibition in vivo at 100 mg/kg is 17%. Besides, in the data set on Mouse, the “LD 50, relative ratio to naproxen” value is given as 1.1 and the “LD 50, relative ratio to piroxicam” value was found to be 3.8. This compound also came in with an LD50 in “in vivo [5]” of 1380 mg/kg.

`CN1c2c(C(=O)NCCCN3CCOCC3)nn(-c3ccccc3)c2-c2ccccc2S1(=O)=O` [Compound I-3]: in the data set “in vivo [1]”, the LD50 amounted to 1080 mg/kg. Also, the “LD 50, relative ratio to piroxicam” value with Rat (in vivo) came to 4.0. In “in vivo [2]”, the mortality at 120 h was 0%. Besides, in the data set on rats [3], the “Subacute toxicity, relative ratio to naproxen” value is recorded as 4 and the “Subacute toxicity, relative ratio to piroxicam” value was 10. Further, in the data set with rats [4] (setting [6]), the “Average number of lesions per animal” value came out at 0. Moreover, in the data set with rats [4], the Gastrolesive effect, relative potency to naproxen was over 20 and the “Gastrolesive effect, relative potency to piroxicam” value is listed as 100. Besides, in the data set on pyresis (setting [7]), the “Antipyretic relative potency to naproxen” value is given as 0.7, the “Antipyretic relative potency to piroxicam” value was 0.9 and the “Reduction of the pyresis at hour 4” value was determined as 0.77 °C. Further, in the data set with pyresis (setting [8]), the “Antipyretic relative potency to naproxen” value was 1.0, the “Antipyretic relative potency to piroxicam” value is given as 1.2 and the “Reduction of the pyresis at hour 4” value worked out at 1.08 °C. In addition, in the data set with phenylquinone writhes (50 mg/kg oral), the “Analgesic relative potency to naproxen” value stood at 1.0 and the “Analgesic relative potency to piroxicam” value amounted to 0.7. Further, in the data set on phenylquinone writhes (100 mg/kg oral), the “Analgesic relative potency to naproxen” value worked out at 1.8 and the “Analgesic relative potency to piroxicam” value came out at 1.3. Moreover, in the data set on phenylquinone writhes (setting [9]), the inhibition in vivo at 50 mg/kg was determined as 33%. Further, the inhibition in vivo at 100 mg/kg in the data set with phenylquinone writhes (setting [10]) stood at 60%. Further, in the data set on carrageenin paw edema (50 mg/kg per os), the “Antiinflammatory relative potency to naproxen” value was determined as 0.4 and the “Antiinflammatory relative potency to piroxicam” value turned out to be 0.2. Also, in the data set on carrageenin paw edema (100 mg/kg per os), the “Antiinflammatory relative potency to naproxen” value was 0.7 and the “Antiinflammatory relative potency to piroxicam” value amounted to 0.3. For the same compound, the inhibition in vivo at 50 mg/kg in the data set on carrageenin paw edema (setting [11]) came out at 9%. Besides, the inhibition in vivo at 100 mg/kg with carrageenin paw edema (setting [12]) turned out to be 15%. In addition, in the data set on Mouse, the “LD 50, relative ratio to naproxen” value was 1.8 and the “LD 50, relative ratio to piroxicam” value turned out to be 6.1. The compound further returned an LD50 in the data set “in vivo [5]” of 2200 mg/kg.

As to `COc1ccc2cc([C@H](C)C(=O)O)ccc2c1` [Naproxen, naproxen, reference compound], the “Average number of lesions per animal” value was 0 with rats [4] (5 mg/kg) and 0.9 in the data set on rats [4] (7.5 mg/kg). Also, the “Gastric ulcerogenicity (in words)” value in the data set on rats [4] (rats) is “considerable gastrolesive power”. The “Reduction of the pyresis at hour 4” value with pyresis (30 mg/g (so in the source) per os) was found to be 1.12 °C. The inhibition in vivo at 30 mg/kg in the data set with phenylquinone writhes (Mus musculus, 30 mg/kg oral, 2 h before phenylquinone, 5-15 min, female mice) amounted to 33%; in the data set on carrageenin paw edema (Rattus norvegicus, po, 4 h, 30 mg/kg per os, female rats, read-out: % inhibition of the edema after 4 hours), 21%.

The values above are taken from patent publication US4378358A, “Benzothiazinopyrazoles having pharmacological activity” (Mediolanum Farmaceutici s.r.l., priority 1980, dated 1983).
